Reference: ChEMBL document CHEMBL5625199, “Discovery of triazole-bridged aryl adamantane analogs as an intriguing class of multifunctional agents for treatment of Alzheimer's disease” (Eur J Med Chem, 2023)
Activity calls are given as the source filed them. The rule behind the calls is not given here.

Columns and labels:
[1] = target: T1, Acetylcholinesterase (Rattus norvegicus) (UniProt P37136); test: Ex vivo inhibition of AChE activity in brain of scopalamine-induced amnesia Wistar rat model at 2.5 to 10 mg/kg, po administered for 7 days and on day 7 administered with scopolamine at 30 mins before drug administration; format: functional, organism-based; settings: dose 2.5-10 mg/kg, time 7.0 day
T1 sequence (whole entry): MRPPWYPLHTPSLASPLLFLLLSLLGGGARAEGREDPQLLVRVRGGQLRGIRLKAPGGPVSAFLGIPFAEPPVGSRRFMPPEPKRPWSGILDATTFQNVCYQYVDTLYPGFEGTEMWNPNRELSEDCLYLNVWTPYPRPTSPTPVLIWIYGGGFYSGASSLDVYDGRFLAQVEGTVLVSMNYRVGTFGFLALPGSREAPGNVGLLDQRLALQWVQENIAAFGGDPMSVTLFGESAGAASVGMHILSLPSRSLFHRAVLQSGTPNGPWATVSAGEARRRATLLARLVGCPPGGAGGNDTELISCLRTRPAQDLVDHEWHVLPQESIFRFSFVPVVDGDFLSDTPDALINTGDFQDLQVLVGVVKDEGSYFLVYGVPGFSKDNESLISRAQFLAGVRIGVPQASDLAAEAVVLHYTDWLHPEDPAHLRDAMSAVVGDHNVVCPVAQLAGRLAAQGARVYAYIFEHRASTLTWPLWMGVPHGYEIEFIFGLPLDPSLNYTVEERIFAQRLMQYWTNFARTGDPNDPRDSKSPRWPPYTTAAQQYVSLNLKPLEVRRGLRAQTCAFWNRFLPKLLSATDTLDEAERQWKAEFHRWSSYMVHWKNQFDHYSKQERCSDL

Rattus norvegicus [2] = test: (§1) Antialzheimer activity against scopalamine-induced amnesia Wistar rat model assessed as inhibition of cognition impairment by measuring increase in spontaneous alterations at 2.5 to 10 mg/kg, po administered for 7 days and on day 7 administered with scopolamine at 30 mins before drug administration by Y-maze test; format: functional, organism-based; settings: dose 2.5-10 mg/kg, time 7.0 day
HEK-293T [3] = test: Cytotoxicity against HEK293T cells assessed as reduction in cell viability at 0.3 to 30 uM measured after 44 hrs by WST-1 assay; format: toxicity, cell-based; settings: human, dose 0.3-30 µM
SH-SY5Y = test: Neuroprotective activity against human SH-SY5Y cells assessed as reduction of Abeta(1 to 42)-induced cytotoxicity upto 10 uM pretreated with Abeta42 for 24 hrs followed by incubation with compound for 72 hrs by MTT assay; format: functional, cell-based
Acetylcholinesterase [4] = target: T2, Acetylcholinesterase (Electrophorus electricus, UniProt O42275); test: Non-competitive inhibition of electric eel AChE by Dixon plot analysis
T2 sequence (O42275 whole entry): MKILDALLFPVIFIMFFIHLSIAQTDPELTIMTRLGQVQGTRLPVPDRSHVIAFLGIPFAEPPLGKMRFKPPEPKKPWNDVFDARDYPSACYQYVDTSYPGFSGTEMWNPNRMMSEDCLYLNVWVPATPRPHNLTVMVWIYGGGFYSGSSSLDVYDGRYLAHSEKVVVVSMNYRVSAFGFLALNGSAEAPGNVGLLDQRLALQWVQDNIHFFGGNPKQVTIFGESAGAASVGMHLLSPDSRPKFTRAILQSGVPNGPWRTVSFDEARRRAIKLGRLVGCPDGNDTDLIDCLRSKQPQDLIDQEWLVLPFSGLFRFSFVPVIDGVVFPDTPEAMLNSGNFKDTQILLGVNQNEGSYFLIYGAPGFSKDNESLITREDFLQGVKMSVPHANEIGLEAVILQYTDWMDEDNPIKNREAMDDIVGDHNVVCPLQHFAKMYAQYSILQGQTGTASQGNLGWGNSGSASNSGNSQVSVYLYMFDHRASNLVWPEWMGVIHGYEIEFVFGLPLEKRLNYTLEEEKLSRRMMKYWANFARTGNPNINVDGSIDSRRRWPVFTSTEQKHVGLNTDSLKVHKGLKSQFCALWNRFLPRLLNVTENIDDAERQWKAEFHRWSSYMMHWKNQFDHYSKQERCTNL

Rattus norvegicus [5] = test: Antialzheimer activity against Abeta(1 to 42)-induced coginitive deficit Wistar rat model assessed as increase in time spent in the platform zone at 10 mg/kg, po administered for 7 days by Morris water maze test; format: functional, organism-based; settings: time 7.0 day
[6] = Antagonist activity at GluN1-1a/GluN2D (unknown origin) expressed in xenopus laevis oocytes assessed as inhibition of glycine/glutamate-induced channel current incubated for 20s measured at holding potential of -70 mV by two-electrode voltage clamp technique; format: cell-based; settings: Homo sapiens, Oocyte
Cholinesterase = Cholinesterase (Equus caballus, UniProt P81908); test: Inhibition of equine serum BuChE using butyrylthiocholine iodide as substrate preincubated with enzyme for 10 mins followed by substrate addition and measured every 1 min for 20 mins by spectrophotometric analysis
Cholinesterase, sequence (P81908 whole entry): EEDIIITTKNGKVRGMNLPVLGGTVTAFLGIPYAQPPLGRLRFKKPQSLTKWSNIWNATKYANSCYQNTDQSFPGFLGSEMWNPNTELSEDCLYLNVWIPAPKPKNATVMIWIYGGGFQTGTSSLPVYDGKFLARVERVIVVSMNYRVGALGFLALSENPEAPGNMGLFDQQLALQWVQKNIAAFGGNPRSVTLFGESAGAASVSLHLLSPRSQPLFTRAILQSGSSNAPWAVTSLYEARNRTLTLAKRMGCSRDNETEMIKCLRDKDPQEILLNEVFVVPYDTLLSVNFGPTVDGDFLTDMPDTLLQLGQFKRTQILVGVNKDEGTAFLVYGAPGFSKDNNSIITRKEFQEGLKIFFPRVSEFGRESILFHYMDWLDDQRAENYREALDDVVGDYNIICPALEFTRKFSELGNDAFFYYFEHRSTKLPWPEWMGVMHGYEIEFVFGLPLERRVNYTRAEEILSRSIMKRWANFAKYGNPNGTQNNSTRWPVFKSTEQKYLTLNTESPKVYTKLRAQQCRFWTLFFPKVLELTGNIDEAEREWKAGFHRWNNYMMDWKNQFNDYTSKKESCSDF

[7] = Antagonist activity at GluN1-1b/GluN2B (unknown origin) expressed in xenopus laevis oocytes assessed as inhibition of glycine/glutamate-induced channel current incubated for 20s measured at holding potential of -70 mV by two-electrode voltage clamp technique; format: cell-based; settings: Homo sapiens, Oocyte
[8] = target: Amyloid-beta precursor protein (Homo sapiens) (UniProt P05067); test: Inhibition of self-induced Amyloid beta (1 to 42 residues) (unknown origin) aggregation at Abeta(1 to 42) to compound concentration ratio of 10:5 to 10:20 uM incubated for 48 hrs by ThT fluorescence method
Amyloid-beta precursor protein (Homo sapiens), sequence (P05067 whole entry, the tested form may be a part): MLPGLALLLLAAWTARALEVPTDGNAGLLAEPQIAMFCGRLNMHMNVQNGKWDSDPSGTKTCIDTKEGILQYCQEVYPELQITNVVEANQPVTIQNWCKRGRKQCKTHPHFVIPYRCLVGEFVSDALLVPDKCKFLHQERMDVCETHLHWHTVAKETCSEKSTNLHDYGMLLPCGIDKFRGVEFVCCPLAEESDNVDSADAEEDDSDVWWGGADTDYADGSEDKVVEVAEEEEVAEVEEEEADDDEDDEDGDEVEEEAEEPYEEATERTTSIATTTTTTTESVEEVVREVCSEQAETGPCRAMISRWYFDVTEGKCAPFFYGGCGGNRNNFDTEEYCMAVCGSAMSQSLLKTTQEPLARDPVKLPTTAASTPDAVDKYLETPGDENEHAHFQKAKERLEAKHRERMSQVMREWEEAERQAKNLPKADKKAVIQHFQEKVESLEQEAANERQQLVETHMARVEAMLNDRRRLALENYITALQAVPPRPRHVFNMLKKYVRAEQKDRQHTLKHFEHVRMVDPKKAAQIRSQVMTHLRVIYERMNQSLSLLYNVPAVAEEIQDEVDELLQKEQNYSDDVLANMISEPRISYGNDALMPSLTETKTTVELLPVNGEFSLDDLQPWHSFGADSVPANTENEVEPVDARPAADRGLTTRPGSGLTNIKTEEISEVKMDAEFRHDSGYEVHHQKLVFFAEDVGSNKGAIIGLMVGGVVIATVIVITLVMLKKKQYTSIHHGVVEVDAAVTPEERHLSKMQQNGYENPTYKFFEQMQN

HEK-293T [9] = test: Cytotoxicity against HEK293T cells assessed as reduction in cell viability at 100 uM measured after 44 hrs by WST-1 assay; format: toxicity, cell-based; settings: human
Rattus norvegicus [10] = test: Antialzheimer activity against Abeta(1 to 42)-induced coginitive deficit Wistar rat model assessed as increase in total number of platform crossings at 10 mg/kg, po administered for 7 days by Morris water maze test; format: functional, organism-based; settings: time 7.0 day
Rattus norvegicus [11] = test: as §1, with “at” for “at 2.5 to”; format: functional, organism-based; settings: time 7.0 day
[12] = Selectivity index, ratio of IC50 for equine serum BuChE to IC50 for electric eel AChE
[13] = Antagonist activity at GluN1-1b/GluN2C (unknown origin) expressed in xenopus laevis oocytes assessed as inhibition of glycine/glutamate-induced channel current incubated for 20s measured at holding potential of -70 mV by two-electrode voltage clamp technique; format: cell-based; settings: Homo sapiens, Oocyte
[14] = target: T1, Acetylcholinesterase (Rattus norvegicus); test: Ex vivo inhibition of AChE activity in brain of scopalamine-induced amnesia Wistar rat model at 10 mg/kg, po administered for 7 days and on day 7 administered with scopolamine at 30 mins before drug administration; format: functional, organism-based; settings: time 7.0 day
[15] = Antagonist activity at GluN1-1b/GluN2D (unknown origin) expressed in xenopus laevis oocytes assessed as inhibition of glycine/glutamate-induced channel current incubated for 20s measured at holding potential of -70 mV by two-electrode voltage clamp technique; format: cell-based; settings: Homo sapiens, Oocyte
[16] = Antagonist activity at GluN1-1b/GluN2A (unknown origin) expressed in xenopus laevis oocytes assessed as inhibition of glycine/glutamate-induced channel current incubated for 20s measured at holding potential of -70 mV by two-electrode voltage clamp technique; format: cell-based; settings: Homo sapiens, Oocyte
[17] = target: Amyloid-beta precursor protein (Homo sapiens) (UniProt P05067); test: Inhibition of AChE-induced Amyloid beta (1 to 42 residues) (unknown origin) aggregation at Abeta(1 to 42) to compound concentration ratio of 10:5 to 10:20 uM incubated for 48 hrs by ThT fluorescence method
[18] = Antagonist activity at GluN1-1a/GluN2B (unknown origin) expressed in xenopus laevis oocytes assessed as inhibition of glycine/glutamate-induced channel current incubated for 20s measured at holding potential of -70 mV by two-electrode voltage clamp technique; format: cell-based, Homo sapiens; settings: Oocyte
Acetylcholinesterase [19] = target: T2, Acetylcholinesterase; test: Inhibition of electric eel AChE using acetylthiocholine iodide as substrate preincubated with enzyme for 10 mins followed by substrate addition and measured every 1 min for 20 mins by spectrophotometric analysis
Acetylcholinesterase [20] = target: Acetylcholinesterase (Homo sapiens, UniProt P22303); test: Inhibition of human AChE
Acetylcholinesterase (Homo sapiens, UniProt P22303), sequence (P22303 whole entry): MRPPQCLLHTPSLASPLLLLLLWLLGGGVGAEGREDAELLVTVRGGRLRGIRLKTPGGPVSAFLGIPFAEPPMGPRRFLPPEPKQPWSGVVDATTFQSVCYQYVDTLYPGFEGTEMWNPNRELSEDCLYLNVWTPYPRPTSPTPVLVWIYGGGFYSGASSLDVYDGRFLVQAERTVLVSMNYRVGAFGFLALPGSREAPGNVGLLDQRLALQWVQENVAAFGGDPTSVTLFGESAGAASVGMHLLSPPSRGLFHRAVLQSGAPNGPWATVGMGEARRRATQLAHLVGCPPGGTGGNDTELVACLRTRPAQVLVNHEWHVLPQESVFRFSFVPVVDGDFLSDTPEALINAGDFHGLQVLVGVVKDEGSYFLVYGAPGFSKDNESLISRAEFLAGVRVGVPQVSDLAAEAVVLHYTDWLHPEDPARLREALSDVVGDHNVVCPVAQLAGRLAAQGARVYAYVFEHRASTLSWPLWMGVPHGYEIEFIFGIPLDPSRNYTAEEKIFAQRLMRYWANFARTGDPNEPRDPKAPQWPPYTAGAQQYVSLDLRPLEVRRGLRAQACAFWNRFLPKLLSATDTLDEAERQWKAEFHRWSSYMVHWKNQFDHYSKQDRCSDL

[21] = Antagonist activity at GluN1-1a/GluN2A (unknown origin) expressed in xenopus laevis oocytes assessed as inhibition of glycine/glutamate-induced channel current incubated for 20s measured at holding potential of -70 mV by two-electrode voltage clamp technique; format: cell-based; settings: Homo sapiens, Oocyte
[22] = Antagonist activity at GluN1-1a/GluN2C (unknown origin) expressed in xenopus laevis oocytes assessed as inhibition of glycine/glutamate-induced channel current incubated for 20s measured at holding potential of -70 mV by two-electrode voltage clamp technique; format: cell-based; settings: Homo sapiens, Oocyte
in vitro = settings: PAMPA
Description: Permeability of the compound at 25 ug/ml incubated or 18 hrs by PAMPA-BBB assay

[23] = Antagonist activity at NMDA receptor (unknown origin); parameters: species or system Homo sapiens
Rattus norvegicus [24] = test: Antialzheimer activity against Abeta(1 to 42)-induced coginitive deficit Wistar rat model assessed as increase in time spent in the platform zone at 5 mg/kg, po administered for 7 days by Morris water maze test; format: functional, organism-based; settings: time 7.0 day
Rattus norvegicus [25] = test: Antialzheimer activity against Abeta(1 to 42)-induced coginitive deficit Wistar rat model assessed as increase in total number of platform crossings at 5 mg/kg, po administered for 7 days by Morris water maze test; format: functional, organism-based; settings: time 7.0 day
Rattus norvegicus [26] = test: as §1, with “5” for “2.5 to 10”; format: functional, organism-based; settings: time 7.0 day
Homo sapiens = organism: Homo sapiens; test: Antagonist activity at NMDA receptor (unknown origin) relative to control; settings: filed as antagonist, concentration not given here

| SMILES | IC50 (Cholinesterase) [µM] | Ratio IC50 [12] | IC50 [18] [µM] | IC50 (Acetylcholinesterase [19]) [µM] | IC50 (Acetylcholinesterase [20]) [µM] | Papp at 18 h, 25 ug/ml (in vitro) [×10⁻⁶ cm/s] | further results |
| --- | --- | --- | --- | --- | --- | --- | --- |
| Brc1ccc(Cn2cc(CNC34CC5CC(CC(C5)C3)C4)nn2)cc1 | 2.55 | 29.6 | 3.88 | 0.086 | 0.092 | 8.75 | inhibition [1]: Dose-Dependent Effect; Activity (Rattus norvegicus [2]): Dose-Dependent Effect; Activity (HEK-293T [3]): Non-Toxic; Activity (SH-SY5Y): Active; Ki (Acetylcholinesterase [4]): 0.026 µM; Activity (Rattus norvegicus [5]): Active; IC50 [6]: 112 µM; IC50 [7]: 3 µM; inhibition [8]: Dose-Dependent Effect; Activity (HEK-293T [9]): Toxic; Activity (Rattus norvegicus [10]): Active; Activity (Rattus norvegicus [11]): Active; IC50 [13]: 45.1 µM; inhibition [14]: Active; IC50 [15]: 99.5 µM; IC50 [16]: 36.5 µM; inhibition [17]: Dose-Dependent Effect; IC50 [21]: 47.4 µM; IC50 [22]: 90.2 µM |
| CC(C)c1ccc(Cn2cc(CNC34CC5CC(CC(C5)C3)C4)nn2)cc1 | 7.83 | 9.79 | 79.5 | 0.799 | – | 7.63 | – |
| COc1ccc2nc3c(c(NCCCCCNC(=S)N[C@]45CC6C[C@@H](C[C@@H](C6)C4)C5)c2c1)CCCC3 | – | – | – | – | 0.47 | – | Ki [23]: 1.8 µM |
| Fc1ccc(Cn2cc(CNC34CC5CC(CC(C5)C3)C4)nn2)cc1 | 3.27 | 16.9 | – | 0.194 | – | 7.75 | – |
| Brc1ccc(Cn2cc(CNC3CCCCCC3)nn2)cc1 | 17.3 | 31.4 | 38.2 | 0.55 | 0.621 | 6.72 | – |
| COc1cc2c(cc1OC)C(=O)C(CC1CCN(Cc3ccccc3)CC1)C2 (stereo unspecified) | – | – | – | – | – | – | Activity (Rattus norvegicus [24]): Active; Activity (Rattus norvegicus [25]): Active; Activity (Rattus norvegicus [26]): Active |
| Clc1ccc(Cn2cc(CNC3CCCCCC3)nn2)cc1 | 16.5 | 27.1 | – | 0.607 | 0.927 | 6.84 | – |
| F[C@]12CC3C[C@](NCCCCCNc4c5c(nc6cc(Cl)ccc46)CCCC5)(C[C@H](C1)c1ccccc13)C2 | – | – | – | – | – | – | IC50 [23]: 0.9 µM |
| CC(C)c1ccc(Cn2cc(CNC3CCCCCC3)nn2)cc1 | 15.7 | 10.3 | 217 | 1.52 | – | 7.24 | – |
| c1ccc(Cn2cc(CNC34CC5CC(CC(C5)C3)C4)nn2)cc1 | 4.72 | 13.1 | – | 0.36 | – | 6.95 | – |
| c1ccc(CCNC23CC4CC(CC(C4)C2)C3)cc1 | – | – | – | – | – | – | inhibition (Homo sapiens): 89.5% |
